Measurements: US8962674B2 (Tokyo Institute of Technology, priority 2006, dated 2015)

Assays:
[1] = tested on: cerebral cortex cells of embryonic Wistar rat; assay: Cytoprotection from Aβ1-42-induced cell cytotoxicity, MTT (Test Example 4); assay type: cell-based; settings: compound 24 hr, then 5 μM Aβ1-42 for 48 hr
Protocol: Cytoprotection from Aβ1-42-Induced Cell Cytotoxicity
Cerebral cortex was obtained from 19-20 day-old embryonic Wistar rat. The tissue was minced, dissociated using scalpel blades and Pasteur pipette, and centrifuged at 100 rpm. Precipitated cells were filtered using […] cell strainer, and single cells were prepared. These cells were suspended in Eagle's Minimum Essential Medium (EMEM) containing 10% Fetal bovine serum, and plated into 48-well tissue culture plates (Becton Dickinson) at 200 μL/well and 1.7×10^5 cells/cm^2. Cultures were incubated at 37° C. in a humidified atmosphere of 5% CO2.
After 3, 5, and 7 days in culture, the medium was replaced.
After 9 days, compounds were dissolved in DMSO and diluted in culture media so that the final concentration of DMSO in culture media was 0.1%, and each solution was added to each well at […] for 24 hr. The control solution contained 0.1% DMSO.
After 24 hr, Aβ1-42 was dissolved in a 0.1% NH3 solution at a concentration of 500 μM and diluted in culture media to a final concentration of 5 μM, and the Aβ solution was added to each well at […] for 48 hr. After 48 hr, cultures were treated with 0.5% MTT solution (Nacalai Tesque) for 35 min. The MTT solution was replaced with 2-propanol (200 μL), and the culture plates were shook to dissolve formazan. Absorption of the solution was measured at 570 nm.

recombinant human BACE-1 = recombinant human BACE-1 (Homo sapiens (Human), UniProt P56817); assay: Calculation of 50% inhibitory concentration (IC50) of BACE-1 (Test Example 5); assay type: biochemical; settings: 37° C., 2.5 hr, fluorescent substrate peptide
Sequence of recombinant human BACE-1 (P56817 46-501): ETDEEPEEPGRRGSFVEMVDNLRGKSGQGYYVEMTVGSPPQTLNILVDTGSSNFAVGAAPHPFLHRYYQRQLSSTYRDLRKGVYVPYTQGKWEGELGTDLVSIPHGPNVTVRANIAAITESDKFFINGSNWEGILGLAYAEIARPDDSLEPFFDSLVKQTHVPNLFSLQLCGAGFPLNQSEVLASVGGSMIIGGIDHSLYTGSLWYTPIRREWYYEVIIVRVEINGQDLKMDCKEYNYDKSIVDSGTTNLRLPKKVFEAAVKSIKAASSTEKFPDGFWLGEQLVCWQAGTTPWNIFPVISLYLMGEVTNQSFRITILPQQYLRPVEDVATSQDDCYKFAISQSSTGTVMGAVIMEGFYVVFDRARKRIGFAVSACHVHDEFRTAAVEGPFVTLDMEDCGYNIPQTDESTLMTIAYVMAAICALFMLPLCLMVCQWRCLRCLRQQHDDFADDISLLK
Protocol: Compounds were dissolved in 0.1 M sodium acetate buffer (with 150 mM sodium chloride, pH 4.5) to each concentration with DMSO (concentration of compounds: 0.3, 0.9, 3.0, 9.0, and 30.0). The final concentration of DMSO was 10%. The solution with no compound was used as a negative control. 15 μL of these solutions, recombinant human BACE-1 (1.0 U/ml, Invitrogen), and the fluorescent substrate peptide (2.5 nM) were mixed in a black 384-well plate (Costar). Then, mixtures were incubated in the dark at 37° C. for 2.5 hr. The fluorescence intensities of the mixtures were measured at 540 nm for excitation and at 590 nm for emission. The inhibition ratio was calculated as a percentage of the negative control. The sequence of the peptide was […] and labeled with Cy3 at Ser-1 and with Cy5Q at Lys-9. Final concentrations of compounds were as follows: […].

Aβ1-42 = Aβ1-42 (Homo sapiens (Human), UniProt P05067); assay: Aβ aggregation inhibition assay, thioflavin T fluorescence (Test Example 2); assay type: biochemical; settings: 24 hr at 37° C.
Sequence of Aβ1-42 (P05067 672-713): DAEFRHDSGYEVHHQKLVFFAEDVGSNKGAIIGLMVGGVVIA
Protocol: Aβ3-42 aggregation Inhibition Assay
Aβ1-42 was dissolved in a 0.1% NH3 solution at a concentration of 100 μM and centrifuged for 1.5 hr at 200,000 g, and the supernatant are used in the assay. […] The mixtures were incubated for 24 hr at 37° C. in a black 96-well plate.

[2] = target: recombinant human β-secretase (rhBACE-1) (Homo sapiens (Human), UniProt P56817); assay: β-Secretase enzyme inhibition assay (Test Example 1); assay type: biochemical; settings: compound solution 3 μM (FIG. 1 legend: 1.0 μM), 37° C., 2 hr, fluorescent substrate peptide
Sequence of recombinant human β-secretase (rhBACE-1) (P56817 46-501): as the sequence (P56817 46-501) above
Protocol: β-Secretase Enzyme Inhibition Assay
Compounds were dissolved in dimethylsulfoxide (DMSO), and further diluted in 0.1 M sodium acetate buffer (with 150 mM sodium chloride, pH 4.5). The solution with no compound was used as a negative control. Then, 100 μL of these solutions (compound concentration: 3 μM), 1 μL of recombinant human β-secretase (rhBACE-1, R&D), and 5 μL of the fluorescent substrate peptide were mixed in a black 96-well plate (Nunc). After mixtures were incubated in the dark at 37° C. for 2 hr, the fluorescence intensities of the mixtures were measured by fluorescence microplate reader (Wallac) at 540 nm for excitation and at 590 nm for emission. The inhibition ratio was calculated as a percentage of the negative control. The sequence of the peptide was […] and labeled with fluorescent donor (Cy3) at Ser-1 and with quencher (Cy5Q) at Lys-9, respectively (Invitrogen).

aggregated Aβ1-42 = aggregated Aβ1-42 (Homo sapiens (Human), UniProt P05067); assay: Aβ1-42 degradation assay on pre-formed aggregates, thioflavin T fluorescence (Test Example 3); assay type: biochemical; settings: aggregated Aβ, 1 hr at 37° C., read-out: IC50 (Aβ1-42 aggregate degradation, Table 2 head)
Sequence of aggregated Aβ1-42 (P05067 672-713): as the sequence (P05067 672-713) above
Protocol: Aβ1-42 (Peptide Institute) was dissolved in a 0.1% NH3 solution at a concentration of 60 μM, and incubated for 24 hr at 37° C. to form the aggregation. 25 μM of the aggregated Aβ solution diluted by 100 mM phosphate buffer (pH 7.4) and the compound dilution containing 2% DMSO were mixed in equal amount. The mixtures were incubated for 1 hr at 37° C. in a black 96-well plate. After incubation, 6 μM thioflavin T (Sigma) in 100 mM of glycine-NaOH buffer, pH 8.5, was added, and fluorescence was measured for excitation at 440 nm and emission at 486 nm. The solution with DMSO only, instead of the compound solution, was used as a negative control. The activity was calculated as a percentage of the negative control.

| SMILES | melting point [°C] | inhibitory effect on BACE-1 activity (IC50 shown in FIG. 2) (recombinant human BACE-1) | further results |
| --- | --- | --- | --- |
| O=C(/C=C/c1ccc(O)cc1)CC(=O)/C=C/c1ccccc1O [CU080, (1E,6E)-1-(2-hydroxyphenyl)-7-(4-hydroxyphenyl)hepta-1,6-diene-3,5-dione] |  |  | MEC, minimal effective concentration (cytoprotection) [1]: 1.0 µM |
| COc1ccc(/C=C/C(=O)CC(=O)/C=C/c2cc(O)ccc2[N+](=O)[O-])cc1O [CU133, (1E,6E)-1-(3-hydroxy-4-methoxyphenyl)-7-(5-hydroxy-2-nitrophenyl)hepta-1,6-diene-3,5-dione] | 107 to 111 | inhibitory effect on BACE-1 activity at relatively low concentration |  |
| O=C(/C=C/c1cc(O)ccc1[N+](=O)[O-])CC(=O)CCc1ccc(O)cc1 [CU530, (E)-1-(5-hydroxy-2-nitrophenyl)-7-(4-hydroxyphenyl)hept-1-ene-3,5-dione] | 62 to 70 | inhibitory effect on BACE-1 activity at relatively low concentration |  |
| O=C(/C=C/c1ccc(O)cc1)CC(=O)/C=C/c1c[nH]c2cccc([N+](=O)[O-])c12 [CU461, (1E,6E)-1-(4-hydroxyphenyl)-7-(4-nitro-1H-indol-3-yl)hepta-1,6-diene-3,5-dione] | 228 to 232 | inhibitory effect on BACE-1 activity at relatively low concentration |  |
| O=C(/C=C/c1ccc(O)cc1)CC(=O)/C=C/c1cccc(O)c1 [CU078, (1E,6E)-1-(3-hydroxyphenyl)-7-(4-hydroxyphenyl)hepta-1,6-diene-3,5-dione] | 217 |  | MEC, minimal effective concentration (cytoprotection) [1]: 0.1 µM; IC50 (Aβ1-42): 90 nM |
| O=C(/C=C/c1ccc(O)cc1)CC(=O)/C=C/c1cc(O)ccc1[N+](=O)[O-] [CU131, (1E,6E)-1-(4-hydroxyphenyl)-7-(5-hydroxy-2-nitrophenyl)hepta-1,6-diene-3,5-dione] | 187 to 194 | inhibitory effect on BACE-1 activity at relatively low concentration |  |
| COc1cc(/C=C/C(=O)CC(=O)/C=C/c2ccc(O)c(OC)c2)ccc1O [curcumin, reference compound] |  |  | MEC, minimal effective concentration (cytoprotection) [1]: 10 µM |
| O=C(/C=C/c1ccc(O)cc1)CC(=O)/C=C/c1cc(O)ccc1Br [CU532, (1E,6E)-1-(2-bromo-5-hydroxyphenyl)-7-(4-hydroxyphenyl)hepta-1,6-diene-3,5-dione] | 182 to 186 | inhibitory effect on BACE-1 activity at relatively low concentration |  |
| O=C(/C=C/c1ccc(O)cc1)CC(=O)/C=C/c1cc(OCc2ccccc2)ccc1Br [CU531, (1E,6E)-1-(5-benzyloxy-2-bromophenyl)-7-(4-hydroxyphenyl)hepta-1,6-diene-3,5-dione] |  | inhibitory effect on BACE-1 activity at relatively low concentration |  |
| O=C(/C=C/c1cc(O)ccc1[N+](=O)[O-])CC(=O)/C=C/c1cc(O)ccc1[N+](=O)[O-] [CU381, (1E,6E)-1,7-bis(5-hydroxy-2-nitrophenyl)hepta-1,6-diene-3,5-dione] | 253 to 262 | inhibitory effect on BACE-1 activity at relatively low concentration |  |
| O=C(/C=C/c1ccc(O)cc1)CC(=O)/C=C/c1cc(O)cc(O)c1 [CU092, (1E,6E)-1-(3,5-dihydroxyphenyl)-7-(4-hydroxyphenyl)hepta-1,6-diene-3,5-dione] | 238 to 241 |  | MEC, minimal effective concentration (cytoprotection) [1]: 3.0 µM |
| COc1cc(/C=C/C(=O)CC(=O)/C=C/c2ccc(N(C)C)c3ccccc23)ccc1O [CU019, (1E,6E)-1-(4-dimethylaminonaphthalen-1-yl)-7-(4-hydroxy-3-methoxyphenyl)hepta-1,6-diene-3,5-dione] |  |  | IC50 (aggregated Aβ1-42): 400 nM |
| Cc1ccc(/C=C/C(=O)CC(=O)/C=C/c2ccc(O)cc2)cc1C [CU056, (1E,6E)-1-(3,4-dimethylphenyl)-7-(4-hydroxyphenyl)hepta-1,6-diene-3,5-dione] | 150 to 152 |  | IC50 (Aβ1-42): 280 nM |
| COc1cc(N(C)C)ccc1/C=C/C(=O)CC(=O)/C=C/c1ccc(O)cc1 [CU153, (1E,6E)-1-(4-dimethylamino-2-methoxyphenyl)-7-(4-hydroxyphenyl)hepta-1,6-diene-3,5-dione] | 100 to 105 |  | IC50 (Aβ1-42): 880 nM |
| O=C(/C=C/c1ccc(O)cc1)CC(=O)/C=C/c1cc(OCc2ccccc2)ccc1[N+](=O)[O-] [CU475, (1E,6E)-1-(5-benzyloxy-2-nitrophenyl)-7-(4-hydroxyphenyl)hepta-1,6-diene-3,5-dione] | 168 to 172 | inhibitory effect on BACE-1 activity at relatively low concentration |  |

More lines, main results first:

| melting point [°C] | SMILES | inhibitory effect on BACE-1 activity (IC50 shown in FIG. 2) (recombinant human BACE-1) | further results |
| --- | --- | --- | --- |
| 183 to 186 | COc1ccc(O)cc1/C=C/C(=O)CC(=O)/C=C/c1ccc(O)cc1 [CU177, (1E,6E)-1-(4-hydroxyphenyl)-7-(5-hydroxy-2-methoxyphenyl)hepta-1,6-diene-3,5-dione] |  | IC50 (Aβ1-42): 1100 nM |
| 238 to 243 | O=C(/C=C/c1ccc(O)cc1)CC(=O)/C=C/c1ccc2cc[nH]c2c1 [CU189, (1E,6E)-1-(4-hydroxyphenyl)-7-(1H-indol-6-yl)hepta-1,6-diene-3,5-dione] | inhibitory effect on BACE-1 activity at relatively low concentration | inhibition of BACE-1 enzyme activity (inhibitory activities (%) shown in FIG. 1) [2]: strongly inhibited |
| 147 to 152 | COc1cc(/C=C/C(=O)CC(=O)/C=C/c2cc(O)ccc2[N+](=O)[O-])ccc1O [CU132, (1E,6E)-1-(4-hydroxy-3-methoxyphenyl)-7-(5-hydroxy-2-nitrophenyl)hepta-1,6-diene-3,5-dione] | inhibitory effect on BACE-1 activity at relatively low concentration |  |
| 83 to 87 | COc1cc(/C=C/C(=O)CC(=O)/C=C/c2ccc[nH]2)ccc1O [CU022, (1E,6E)-1-(4-hydroxy-3-methoxyphenyl)-7-(1H-pyrrol-2-yl)hepta-1,6-diene-3,5-dione] |  | IC50 (aggregated Aβ1-42): 5300 nM |
| 45 to 50 | O=C(/C=C/c1ccc2ccn(Cc3ccccc3)c2c1)CC(=O)CCc1ccc(O)cc1 [CU520, (E)-1-(1-benzyl-1H-indol-6-yl)-7-(4-hydroxyphenyl)hept-1-ene-3,5-dione] | inhibitory effect on BACE-1 activity at relatively low concentration |  |
| 173 to 175 | COc1cc(/C=C/C(=O)CC(=O)/C=C/c2ccc(O)c(C)c2)ccc1O [CU031, (1E,6E)-1-(4-hydroxy-3-methoxyphenyl)-7-(4-hydroxy-3-methylphenyl)hepta-1,6-diene-3,5-dione] |  | inhibition of BACE-1 enzyme activity (inhibitory activities (%) shown in FIG. 1) [2]: strongly inhibited |
